Reference: ChEMBL document CHEMBL1201862, “PubChem BioAssay data set” (2004)
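Interpolation was linear, between the two tested concentrations surrounding the appropriate level; five concentrations were tested over 48 hours in 96-well plates. GI50 marks 50% less growth.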 The source made the active and inactive calls. No stated cut-off is given here; in the data, active = GI50 up to about 1.1 µM and inactive = higher.

Legend:
Assay in all cases: NCI-60 cell line screen, 48 h
RPMI-8226 = tested on: RPMI-8226
UO-31 = tested on: UO-31
DLD-1 = tested on: DLD-1
SR = tested on: SR
SK-OV-3 = tested on: SK-OV-3
K562 = tested on: K562
SF-539 = tested on: SF-539
KM12 = tested on: KM12
HOP-62 = tested on: HOP-62
UACC-257 = tested on: UACC-257
CAKI-1 = tested on: CAKI-1
NCI-H226 = tested on: NCI-H226
M14 = tested on: M14
MOLT-4 = tested on: MOLT-4
HCC 2998 = tested on: HCC 2998
KM-20L2 = tested on: KM-20L2
HCT-15 = tested on: HCT-15
MDA-MB-435 = tested on: MDA-MB-435
NCI/ADR-RES = tested on: NCI/ADR-RES
MCF7 = tested on: MCF7

Row | Compound | GI50 (RPMI-8226) | GI50 (UO-31) | GI50 (DLD-1) | GI50 (SR) | GI50 (SK-OV-3) | GI50 (K562) | GI50 (SF-539) | GI50 (KM12) | GI50 (HOP-62) | GI50 (UACC-257) | GI50 (CAKI-1) | GI50 (NCI-H226) | GI50 (M14) | GI50 (MOLT-4) | GI50 (HCC 2998) | GI50 (KM-20L2) | GI50 (HCT-15) | GI50 (MDA-MB-435) | GI50 (NCI/ADR-RES) | GI50 (MCF7)
1 | O=S1(=O)OCCOS(=O)(=O)C1Cl | > 100 µM (inactive) | > 100 µM (inactive) | > 100 µM (inactive) | > 100 µM (inactive) | > 100 µM (inactive) | > 100 µM (inactive) | > 100 µM (inactive) | > 100 µM (inactive) | > 100 µM (inactive) | > 100 µM (inactive) | > 100 µM (inactive) | > 100 µM (inactive) | > 100 µM (inactive) | > 100 µM (inactive) | > 100 µM (inactive) | – | – | – | – | –
2 | CCc1ccccc1NC(=O)c1cccc([N+](=O)[O-])c1O | 5.41 µM (inactive) | 22.2 µM (inactive) | 26.7 µM (inactive) | – | 25 µM (inactive) | 40.4 µM (inactive) | > 100 µM (inactive) | 18.1 µM (inactive) | 19 µM (inactive) | 19.9 µM (inactive) | 25.1 µM (inactive) | 29 µM (inactive) | 47.5 µM (inactive) | 18.6 µM (inactive) | 24.7 µM (inactive) | 24.7 µM (inactive) | 25.8 µM | – | – | –
3 | NNC(=O)N/N=C(/CC1(O)C(=O)Nc2ccc(Br)cc21)c1ccccc1 (stereo unspecified) | 48.4 µM (inactive) | 12.5 µM (inactive) | 35.9 µM (inactive) | 31.6 µM (inactive) | 40.2 µM (inactive) | 30.5 µM (inactive) | 23.9 µM (inactive) | 25.7 µM (inactive) | – | 77.3 µM (inactive) | 30.3 µM (inactive) | 82.6 µM (inactive) | 37.6 µM (inactive) | 16.7 µM (inactive) | – | 27.9 µM (inactive) | 61.1 µM | – | – | –
4 | O=C1OC(=O)C2C3C=CC(C12)C1C2C=CC2C31 (stereo unspecified) | – | – | – | > 100 µM (inactive) | > 100 µM (inactive) | > 100 µM (inactive) | > 100 µM (inactive) | > 100 µM (inactive) | > 100 µM (inactive) | > 100 µM (inactive) | > 100 µM (inactive) | > 100 µM (inactive) | – | > 100 µM (inactive) | > 100 µM (inactive) | > 100 µM (inactive) | – | – | – | –
5 | Cc1nc(-c2cccnc2)sc1C(=O)/C=C/c1cccc([N+](=O)[O-])c1 | > 100 µM (inactive) | > 100 µM (inactive) | > 100 µM (inactive) | – | > 100 µM (inactive) | > 100 µM (inactive) | > 100 µM (inactive) | > 100 µM (inactive) | > 100 µM (inactive) | > 100 µM (inactive) | > 100 µM (inactive) | > 100 µM (inactive) | – | > 100 µM (inactive) | > 100 µM (inactive) | > 100 µM (inactive) | > 100 µM | – | – | –
6 | CCCN(CCCCC(NC(C)=O)C(=O)NCc1ccccc1)C(=O)NC (stereo unspecified) | > 100 µM (inactive) | > 100 µM (inactive) | > 100 µM (inactive) | – | > 100 µM (inactive) | > 100 µM (inactive) | > 100 µM (inactive) | > 100 µM (inactive) | > 100 µM (inactive) | > 100 µM (inactive) | > 100 µM (inactive) | > 100 µM (inactive) | > 100 µM (inactive) | > 100 µM (inactive) | > 100 µM (inactive) | > 100 µM (inactive) | > 100 µM | – | – | –
7 | C1=CC=C2NCCSCC/N=C3/C=CC=CC=C3NCCSCC/N=C\2C=C1 | > 100 µM (inactive) | > 100 µM (inactive) | > 100 µM (inactive) | – | > 100 µM (inactive) | > 100 µM (inactive) | – | > 100 µM (inactive) | > 100 µM (inactive) | > 100 µM (inactive) | > 100 µM (inactive) | > 100 µM (inactive) | > 100 µM (inactive) | > 100 µM (inactive) | > 100 µM (inactive) | > 100 µM (inactive) | > 100 µM | – | – | –
8 | CN(C)CC1(C)CC/C(=C\c2ccc(Cl)cc2)C1=O (stereo unspecified) | 19.1 µM (inactive) | 45.8 µM (inactive) | 29.2 µM (inactive) | – | – | 40.6 µM (inactive) | 46.5 µM (inactive) | 31.8 µM (inactive) | > 100 µM (inactive) | 44.7 µM (inactive) | 22.7 µM (inactive) | > 100 µM (inactive) | 43.2 µM (inactive) | 20.5 µM (inactive) | 40.5 µM (inactive) | 21.3 µM (inactive) | 34.4 µM | – | – | –
9 | COc1ccc(/C(=N/O)C(c2ccc(OC)cc2)C2C(=O)Oc3ccccc32)cc1 (stereo unspecified) | > 100 µM (inactive) | 35.5 µM (inactive) | 83.4 µM (inactive) | > 100 µM (inactive) | > 100 µM (inactive) | 71.4 µM (inactive) | > 100 µM (inactive) | 83.4 µM (inactive) | – | 34.7 µM (inactive) | 92 µM (inactive) | 37.2 µM (inactive) | 51.3 µM (inactive) | > 100 µM (inactive) | > 100 µM (inactive) | – | 71.6 µM | – | – | –
10 | CCO/N=[N+](\[O-])N(CC)CC | – | > 100 µM (inactive) | – | > 100 µM (inactive) | > 100 µM (inactive) | > 100 µM (inactive) | > 100 µM (inactive) | > 100 µM (inactive) | > 100 µM (inactive) | > 100 µM (inactive) | > 100 µM (inactive) | > 100 µM (inactive) | > 100 µM (inactive) | > 100 µM (inactive) | > 100 µM (inactive) | > 100 µM (inactive) | > 100 µM | – | – | –
11 | N#CC(c1nc2ccccc2nc1Cl)S(=O)(=O)c1ccccc1 (stereo unspecified) | 37.2 µM (inactive) | 43.8 µM (inactive) | > 100 µM (inactive) | > 100 µM (inactive) | – | 34.3 µM (inactive) | > 100 µM (inactive) | > 100 µM (inactive) | > 100 µM (inactive) | > 100 µM (inactive) | 51.3 µM (inactive) | > 100 µM (inactive) | > 100 µM (inactive) | 32.4 µM (inactive) | 65.9 µM (inactive) | > 100 µM (inactive) | 54.1 µM | – | – | –
12 | C=CCCC(OCOCCOC)c1cc(C)c(O[Si](C)(C)C(C)(C)C)c(C)c1 (stereo unspecified) | 4.81 µM (inactive) | 11.7 µM (inactive) | – | – | 25.4 µM (inactive) | 8.05 µM (inactive) | 18.4 µM (inactive) | 13.5 µM (inactive) | 18.7 µM (inactive) | 4.58 µM (inactive) | – | 13.5 µM (inactive) | 34.4 µM (inactive) | 4.4 µM (inactive) | 14 µM (inactive) | 13.2 µM (inactive) | 13.2 µM | – | – | –
13 | CN(C)Cc1cc(/C(=C(\C#N)c2ccccc2)c2ccc(O)cc2)ccc1O | 20.2 µM (inactive) | 20.4 µM (inactive) | 20.8 µM (inactive) | 12.9 µM (inactive) | 27 µM (inactive) | 20 µM (inactive) | – | 19.9 µM (inactive) | 14.4 µM (inactive) | 15.6 µM (inactive) | 20.9 µM (inactive) | 21.9 µM (inactive) | 10.4 µM (inactive) | 15.3 µM (inactive) | 15.5 µM (inactive) | 20.4 µM (inactive) | 25.4 µM | – | – | –
14 | COC(=O)C(C#N)C1NC(=O)c2ccccc21 (stereo unspecified) | > 100 µM (inactive) | > 100 µM (inactive) | > 100 µM (inactive) | > 100 µM (inactive) | > 100 µM (inactive) | > 100 µM (inactive) | > 100 µM (inactive) | > 100 µM (inactive) | > 100 µM (inactive) | > 100 µM (inactive) | – | > 100 µM (inactive) | > 100 µM (inactive) | > 100 µM (inactive) | > 100 µM (inactive) | > 100 µM (inactive) | > 100 µM | – | – | –
15 | Nc1ccc(-c2ncc3cc(-c4cccc(-c5cc6cnc(-c7ccc(N)cc7)nc6c6ccccc56)c4)c4ccccc4c3n2)cc1 | > 100 µM (inactive) | > 100 µM (inactive) | – | > 100 µM (inactive) | > 100 µM (inactive) | > 100 µM (inactive) | > 100 µM (inactive) | > 100 µM (inactive) | > 100 µM (inactive) | > 100 µM (inactive) | > 100 µM (inactive) | > 100 µM (inactive) | 60.1 µM (inactive) | > 100 µM (inactive) | > 100 µM (inactive) | – | > 100 µM | > 100 µM (inactive) | > 100 µM (inactive) | > 100 µM (inactive)
16 | O=C1Nc2c(Cl)cccc2/C1=N/Nc1ccccc1[N+](=O)[O-] | 25 µM (inactive) | 22.1 µM (inactive) | – | 4.68 µM (inactive) | 18.8 µM (inactive) | 36.9 µM (inactive) | 16.7 µM (inactive) | 8.89 µM (inactive) | 9.27 µM (inactive) | 22.4 µM (inactive) | 11.7 µM (inactive) | 36.1 µM (inactive) | 21.7 µM (inactive) | 31.3 µM (inactive) | 32.7 µM (inactive) | – | 29.9 µM | 28.2 µM (inactive) | 11.5 µM (inactive) | 14.7 µM (inactive)
17 | COC(=O)/C(=N/NC(C)(C)C)C(C(=O)OC)C(=O)C(=O)Nc1nc2ccc([N+](=O)[O-])cc2s1 (stereo unspecified) | > 100 µM (inactive) | > 100 µM (inactive) | – | > 100 µM (inactive) | > 100 µM (inactive) | > 100 µM (inactive) | > 100 µM (inactive) | > 100 µM (inactive) | > 100 µM (inactive) | > 100 µM (inactive) | > 100 µM (inactive) | > 100 µM (inactive) | > 100 µM (inactive) | > 100 µM (inactive) | > 100 µM (inactive) | > 100 µM (inactive) | > 100 µM | – | – | –
18 | Brc1ccc2c(-c3csc(-c4c[nH]c5cc(Br)ccc45)n3)c[nH]c2c1 | 17.6 µM (inactive) | 55.3 µM (inactive) | – | 5.61 µM (inactive) | 18.5 µM (inactive) | 4.75 µM (inactive) | 19.6 µM (inactive) | 11.8 µM (inactive) | 37.2 µM (inactive) | > 65.9 µM (inactive) | 43.6 µM (inactive) | 30.5 µM (inactive) | 17.7 µM (inactive) | 12.1 µM (inactive) | 43.8 µM (inactive) | – | 12.4 µM | 5.27 µM (inactive) | 16 µM (inactive) | 11.8 µM (inactive)
